BindingDB's records for doi:10.1016/j.bmcl.2007.05.099 (Southern Research Institute, 2007)

Experiment: Inhibition of Mycobacterium smegmatis arabinosyl transferase assessed as [14C]arabinofuranose incorporation
For `O[C@H]1[C@H](O)[C@@H](CN(CC2CCCCC2)CC2CCCCC2)O[C@@H]1/C=C/[C@H]1O[C@H](CN(CC2CCCCC2)CC2CCCCC2)[C@@H](O)[C@@H]1O` [(2R,3S,4S,5R)-2-((bis(cyclohexylmethyl)amino)methyl)-5-(2-((2R,3S,4S,5R)-5-((bis(cyclohexylmethyl)amino)methyl)-3,4-dihydroxy-tetrahydrofuran-2-yl)vinyl)-tetrahydrofuran-3,4-diol], the IC50 was 4.15 mM.
In the case of `O[C@H]1[C@H](O)[C@@H](CN(CC2CCCCC2)CC2CCCCC2)O[C@@H]1CC[C@H]1O[C@H](CN(CC2CCCCC2)CC2CCCCC2)[C@@H](O)[C@@H]1O` [(2R,3S,4S,5R)-2-((bis(cyclohexylmethyl)amino)methyl)-5-(2-((2R,3S,4S,5R)-5-((bis(cyclohexylmethyl)amino)methyl)-3,4-dihydroxy-tetrahydrofuran-2-yl)ethyl)-tetrahydrofuran-3,4-diol], the IC50 is reported as 3.44 mM.
`O[C@@H]1[C@@H](OC[C@H]2O[C@H](CN(CC3CCCCC3)CC3CCCCC3)[C@@H](O)[C@@H]2O)O[C@H](CN(CC2CCCCC2)CC2CCCCC2)[C@H]1O` [(2R,3S,4S,5R)-2-((bis(cyclohexylmethyl)amino)methyl)-5-(((2S,3S,4S,5R)-5-((bis(cyclohexylmethyl)amino)methyl)-3,4-dihydroxy-tetrahydrofuran-2-yloxy)methyl)-tetrahydrofuran-3,4-diol] showed an IC50 of 2.8 mM.
